The target in one assay is T1, mu receptor (Mus musculus, UniProt P42866).
T1 construct: Five CF-1 male mice (Charles River, Portage, Mich.); from tissue; host or cells: whole living CF-1 male mice (in vivo)
Put plainly: Mouse writhing assay, antagonism of morphine analgesia (mu). It counts as in vivo, CF-1 male mice. The following applies: sc, read-out: Mu AD50.

Assay [1] deals with meal fed obese Zucker rats. The assay can be described thus: Food consumption assay in meal fed obese Zucker rats. It counts as in vivo. Conditions: Rattus norvegicus, sc, 4 h, amount to decrease food consumption 20% during first four hours. The source says: The following assay was employed to evaluate the ability of the compounds of the invention to effect food and water consumption of meal fed obese Zucker rats.
According to this procedure, 3-4 month old obese Zucker rats were trained to eat food daily from 8:00 A.M. to 4:00 P.M. only, such that the body weight gain approximates that if the rats were fed ad libitum. These rats were allowed to consume water at all times. Four groups of rats with four rats in each group, two female and two male, were formed. One group served as control for the other three groups each day. Each of the other groups were given a subcutaneous dose of the compound to be evaluated. The test compound was formulated in physiological saline containing 10% dimethylsulfoxide by volume.
Animals remained drug free for 4 days before the next test. Food and water consumption of each rat were measured for the first four hours. A test on one compound was run for three consecutive days. The drug effect was expressed as the percent of the control for that test day.
In the Table, column 1 gives the Example Number of the compound evaluated; and column 2 provides the ED20 in mg/kg, wherein ED20 represents the amount of compound evaluated in mg/kg necessary to decrease food consumption 20% during the first four hours of the experiment.

The target of the next assay is T2, kappa receptor (Mus musculus, UniProt P33534).
T2 construct: Five CF-1 male mice (Charles River, Portage, Mich.); from tissue; host or cells: whole living CF-1 male mice (in vivo)
T2 sequence (P33534 whole entry): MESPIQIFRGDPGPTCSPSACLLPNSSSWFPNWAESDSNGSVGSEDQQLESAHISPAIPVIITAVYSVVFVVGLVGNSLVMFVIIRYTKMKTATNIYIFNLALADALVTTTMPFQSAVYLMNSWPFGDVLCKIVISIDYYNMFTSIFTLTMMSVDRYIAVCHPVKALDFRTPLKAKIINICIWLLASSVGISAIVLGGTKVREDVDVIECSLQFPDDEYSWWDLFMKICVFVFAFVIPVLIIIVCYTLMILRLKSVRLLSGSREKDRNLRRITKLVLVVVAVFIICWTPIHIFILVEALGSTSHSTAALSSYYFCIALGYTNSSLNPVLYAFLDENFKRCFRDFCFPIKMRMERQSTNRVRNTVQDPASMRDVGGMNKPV
The assay can be described thus: in vivo. Further details: species or system CF-1 male mice. Conditions: sc, read-out: Kappa AD50.

Another assay has as its target T3, kappa receptors (Rattus norvegicus, UniProt P34975).
T3 construct: sixty male Long-Evans hooded rats; from tissue; host or cells: whole living male Long-Evans hooded rats (in vivo)
Put plainly: Rat diuresis assay, antagonism of bremazocine-induced urination. The following applies: sc, rats, s.c., urinary output reduced to 50% of effect of 0.08 mg/kg bremazocine alone. It is filed as in vivo, male Long-Evans hooded rats. The protocol: As such, the compounds of the invention were also evaluated in a rat diuresis assay conducted according to the following procedure described by Leander et al. in Drug Development Research 4:421-427 (1984) in an effort to further establish the ability of the present compounds to block kappa receptors.
According to this procedure, sixty male Long-Evans hooded rats (Charles River Breeding Laboratories, Portage, Mich.) weighing between about 300 and 500 grams each were housed either individually or in pairs in a temperature-controlled (23° C.) colony room which was illuminated between 6:00 A.M. and 6:00 P.M. Rodent chow and tap water were continuously available except during the measurement of urine output. The animals were used repeatedly, but no more frequently than twice a week.
The animals were then injected with various doses of the test compounds. To measure urine output, the animals were removed from the home cages, weighed, injected and placed in metabolism cages for 5 hr. Excreted urine was funneled into graduated cylinders. Cumulative urine volumes were determined at designated time intervals, usually at 2 and 5 hr after injection.
The compounds which are salt forms were dissolved in distilled water. If necessary, the compounds were dissolved in distilled water with the aid of either a few drops of lactic acid or hydrochloric acid and gentle warming. All injections were s.c. in a volume of 1 ml/kg of body weight. During tests for antagonism, two injections were given, one on each side of the body.
In the Table, column 1 provides the Example Number of the compound tested; column 2, the amount of compound in mg/kg necessary to reduce the urinary output to 50% of the effect produced by 0.08 mg/kg of bremazocine alone two hours after injection of bremazocine and the test compound; and column 3, the amount of compound in mg/kg necessary to reduce the urinary output to 50% of the effect produced by 0.08 mg/kg of bremazocine alone five hours after injection of bremazocine and the test compound.

[2] abbreviates: 2 h, two hours after injection, read-out: AD50 Two Hours.
[3] abbreviates: 5 h, five hours after injection, read-out: AD50 Five Hours.

Consider 21 molecules from patent US4992450A, “Piperidine opioid antagonists” (Eli Lilly and Company, priority 1989, dated 1991).

The structures appear in SMILES notation. Where a name gives a salt, the structure may show the parent alone. Read-outs that look alike come from different tables or passages of the source.

T1 sequence (P42866 whole entry): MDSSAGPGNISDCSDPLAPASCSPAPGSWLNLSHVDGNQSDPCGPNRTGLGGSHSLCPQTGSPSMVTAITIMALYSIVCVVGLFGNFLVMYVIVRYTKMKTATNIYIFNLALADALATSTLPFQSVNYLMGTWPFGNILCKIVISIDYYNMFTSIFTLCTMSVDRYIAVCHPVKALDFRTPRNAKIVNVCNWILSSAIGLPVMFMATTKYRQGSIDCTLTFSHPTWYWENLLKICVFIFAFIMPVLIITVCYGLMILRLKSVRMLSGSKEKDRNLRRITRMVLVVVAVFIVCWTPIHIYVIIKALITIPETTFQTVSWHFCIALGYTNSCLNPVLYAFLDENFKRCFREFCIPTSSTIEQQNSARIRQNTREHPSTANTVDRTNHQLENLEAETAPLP
T3 sequence (P34975 whole entry): as the sequence (P33534 whole entry) above, with D11E, S17A, S51P, A308V counted along it

For `CC(C)CCCCN1CC[C@](C)(c2cccc(O)c2)[C@H](C)C1` (stereo in doubt) [Example 29, trans-(-)-1-(5-Methylhexyl)-3,4-dimethyl-4-(3-hydroxyphenyl)piperidine hydrochloride], the ED50 was determined as 0.35 mg/kg at mu receptor and 0.89 mg/kg at kappa receptor. In addition, the ED20 in assay [1] stood at 0.31 mg/kg.

Take `C[C@@H]1CN(CCCc2cccs2)CC[C@]1(C)c1cccc(O)c1` (stereo in doubt) [Example 37, trans-(-)-1-[3-(2-Thienyl)propyl]-3,4-dimethyl-4-(3-hydroxyphenyl)piperidine hydrochloride]: the ED50 at mu receptor was found to be 0.24 mg/kg; at kappa receptors (setting [2]), 2.92 mg/kg; on kappa receptors (setting [3]), 1.66 mg/kg; on kappa receptor, 0.65 mg/kg. In assay [1], this molecule returned an ED20 of 0.19 mg/kg.

With `CC1CN(CC2CCCC2)CCC1(C)c1cccc(O)c1` (stereo not drawn) [Example 5, trans-(±)-1-(Cyclopentylmethyl)-3,4-dimethyl-4-(3-hydroxyphenyl)piperidine hydrochloride], the ED50 on mu receptor was determined as 1.01 mg/kg; on kappa receptors (setting [2]), 1.91 mg/kg; at kappa receptors (setting [3]), 0.92 mg/kg; on kappa receptor, 0.54 mg/kg.

As to `CC(C)CCCCN1CC[C@@](C)(c2cccc(O)c2)[C@@H](C)C1` (stereo in doubt) [Example 28, trans-(+)-1-(5-Methylhexyl)-3,4-dimethyl-4-(3-hydroxyphenyl)piperidine hydrochloride], the ED50 stood at 0.08 mg/kg at mu receptor and 0.22 mg/kg at kappa receptor. The ED20 in assay [1] is 0.12 mg/kg.

Molecule `C=CCN1CC[C@]23c4c5ccc(O)c4O[C@H]2C(=O)CC[C@@]3(O)[C@H]1C5` [Compound E, naloxone, reference compound] gave an ED20 in assay [1] of 1.4 mg/kg.

`CC1CN(CCC2CCCCC2)CCC1(C)c1cccc(O)c1` (stereo not drawn) [Example 13, trans-(±)-1-(2-Cyclohexylethyl)-3,4-dimethyl-4-(3-hydroxyphenyl)piperidine hydrochloride]: the values for the ED50 at mu receptor and on kappa receptor were 0.1 mg/kg and 0.12 mg/kg, respectively. Besides, in assay [1], the ED20 amounted to 4.56 mg/kg.

`CC1CN(CCc2cccs2)CCC1(C)c1cccc(O)c1` (stereo not drawn) [Example 38, trans-(±)-1-[2-(2-Thienyl)ethyl]-3,4-dimethyl-4-(3-hydroxyphenyl)piperidine hydrochloride]: the ED50 was 0.25 mg/kg at mu receptor, 2 mg/kg at kappa receptors (setting [3]) and 0.25 mg/kg on kappa receptor.

Regarding `CCCC(O)CCN1CC[C@@](C)(c2cccc(O)c2)[C@@H](C)C1` (relative stereo) [Example 30, trans-(±)-1-[R,S-(3-Hydroxyhexyl)]-3,4-dimethyl-4-(3-hydroxyphenyl)piperidine hydrochloride], the ED50 is 0.11 mg/kg at mu receptor and 0.47 mg/kg at kappa receptor.

For `CC(C)C(O)CCN1CC[C@@](C)(c2cccc(O)c2)[C@@H](C)C1` (relative stereo) [Example 20, trans-(±)-1-[R,S-(3-Hydroxy-4-methylpentyl)]-3,4-dimethyl-4-(3-hydroxyphenyl)piperidine hydrochloride], the ED50 on mu receptor is 0.14 mg/kg; on kappa receptor, 0.35 mg/kg. Also, the ED20 in assay [1] was found to be 0.91 mg/kg.

Consider `C[C@H]1CN(CC[C@@H](O)C2CCCCC2)CC[C@@]1(C)c1cccc(O)c1` [Example 25, trans-(+)-1-[R-(3-Hydroxy-3-cyclohexylpropyl)]-3,4-dimethyl-4-(3-hydroxyphenyl)piperidine], for which the figures for the ED50 on mu receptor and at kappa receptor were 0.03 mg/kg and 0.36 mg/kg, respectively. The molecule further displayed an ED20 in assay [1] of 0.13 mg/kg.

For `CCCCCN1CCC(C)(c2cccc(O)c2)C(C)C1` (stereo not drawn) [Example 14, trans-(±)-1-(n-Pentyl)-3,4-dimethyl-4-(3-hydroxyphenyl)piperidine hydrochloride], the ED50 came to 0.37 mg/kg at mu receptor, 0.78 mg/kg on kappa receptors (setting [2]), 0.69 mg/kg on kappa receptors (setting [3]) and 0.6 mg/kg on kappa receptor. The same molecule had an ED20 in assay [1] of 4.47 mg/kg.

Take `CC1CN(CCC(=O)C2CCCCC2)CCC1(C)c1cccc(O)c1` (stereo not drawn) [Example 33, trans-(±)-1-(3-Oxo-3-cyclohexylpropyl)-3,4-dimethyl-4-(3-hydroxyphenyl)piperidine hydrochloride]: the ED50 at mu receptor was 0.12 mg/kg; at kappa receptor, 0.26 mg/kg.

Consider `CC1CN(CCCc2cccs2)CCC1(C)c1cccc(O)c1` (stereo not drawn) [Example 35, trans-(±)-1-[3-(2-Thienyl)propyl]-3,4-dimethyl-4-(3-hydroxyphenyl)piperidine hydrochloride], for which the ED50 on mu receptor is 0.22 mg/kg; at kappa receptors (setting [2]), 2.2 mg/kg; at kappa receptors (setting [3]), 1.04 mg/kg; on kappa receptor, 0.3 mg/kg. The molecule further showed an ED20 in assay [1] of 0.08 mg/kg.

As to `CC1CN(CCC(C)(C)C)CCC1(C)c1cccc(O)c1` (stereo not drawn) [Example 12, trans-(±)-1-(3,3-Dimethylbutyl)-3,4-dimethyl-4-(3-hydroxyphenyl)piperidine hydrochloride], the ED50 stood at 0.56 mg/kg on mu receptor, 7.89 mg/kg on kappa receptors (setting [2]), 8.13 mg/kg on kappa receptors (setting [3]) and 0.42 mg/kg on kappa receptor.

On to `CCCCCCN1CC[C@](C)(c2cccc(O)c2)[C@H](C)C1` (stereo in doubt) [Example 2, trans-(-)-1-(n-Hexyl)-3,4-dimethyl-4-(3-hydroxyphenyl)piperidine hydrochloride], for which the ED50 on mu receptor came out at 0.21 mg/kg; on kappa receptor, 0.29 mg/kg. The molecule also gave an ED20 in assay [1] of 1.25 mg/kg.

As for `CC1CN(CCCC2CCCC2)CCC1(C)c1cccc(O)c1` (stereo not drawn) [Example 9, trans-(±)-1-(3-Cyclopentylpropyl)-3,4-dimethyl-4-(3-hydroxyphenyl)piperidine hydrochloride], the ED50 was 0.12 mg/kg at mu receptor, 2.4 mg/kg on kappa receptors (setting [2]), 0.79 mg/kg at kappa receptors (setting [3]) and 0.13 mg/kg at kappa receptor. The ED20 in assay [1] is 1.25 mg/kg.

Turning to `CCCCCCN1CC[C@@](C)(c2cccc(O)c2)[C@@H](C)C1` (stereo in doubt) [Example 1, trans-(+)-1-(n-Hexyl)-3,4-dimethyl-4-(3-hydroxyphenyl)piperidine hydrochloride], the ED50 on mu receptor was 0.26 mg/kg; at kappa receptor it was 0.22 mg/kg. The molecule also yielded an ED20 in assay [1] of 0.08 mg/kg.

As for `C[C@H]1CN(CCC(=O)c2ccccc2)CC[C@@]1(C)c1cccc(O)c1` (relative stereo) [Compound C, 3-[4β-(3-Hydroxyphenyl)-3β,4α-dimethylpiperidino]propiophenone maleate, reference compound], the figures for the ED50 at mu receptor and at kappa receptor were 0.14 mg/kg and 4.5 mg/kg, respectively. This molecule had an ED20 in assay [1] of 3.72 mg/kg.

Regarding `CCCCCC(=O)CCN1CCC(C)(c2cccc(O)c2)C(C)C1` (stereo not drawn) [Example 32, trans-(±)-1-(3-Oxo-n-octyl)-3,4-dimethyl-4-(3-hydroxyphenyl)piperidine hydrochloride], the ED50 at mu receptor was found to be 0.17 mg/kg; at kappa receptor it was 3.5 mg/kg.

`O=C1CC[C@@]2(O)[C@H]3Cc4ccc(O)c5c4[C@@]2(CCN3CC2CC2)[C@H]1O5` [Compound F, naltrexone, reference compound] gave an ED20 in assay [1] of 2.05 mg/kg.

As for `C[C@H]1CN(CCC(O)C2CCCC2)CC[C@@]1(C)c1cccc(O)c1` (relative stereo) [Example 18, trans-(±)-1-[R,S-(1-Cyclopentylpropanol-3-yl)]-3,4-dimethyl-4-(3-hydroxyphenyl)piperidine hydrochloride], the results for the ED50 at mu receptor and on kappa receptor were 0.04 mg/kg and 0.08 mg/kg, respectively. The molecule further returned an ED20 in assay [1] of 0.07 mg/kg.
